Results on 29 compounds are retold here after US9969694B2, “N-(arylalkyl)-N′-pyrazolyl-urea, thiourea, guanidine and cyanoguanidine compounds as TrkA kinase inhibitors” (Array BioPharma Inc., priority 2012, dated 2018).

Each structure is given as a SMILES string.

In this assay the target is T1, His-tagged recombinant human TrkA (Homo sapiens, UniProt P04629).
T1 construct: 6HIS tagged cytoplasmic domain from Invitrogen, Catalog No. PV3144; purchased Invitrogen PV3144
T1 sequence (P04629 440-796 limits assumed): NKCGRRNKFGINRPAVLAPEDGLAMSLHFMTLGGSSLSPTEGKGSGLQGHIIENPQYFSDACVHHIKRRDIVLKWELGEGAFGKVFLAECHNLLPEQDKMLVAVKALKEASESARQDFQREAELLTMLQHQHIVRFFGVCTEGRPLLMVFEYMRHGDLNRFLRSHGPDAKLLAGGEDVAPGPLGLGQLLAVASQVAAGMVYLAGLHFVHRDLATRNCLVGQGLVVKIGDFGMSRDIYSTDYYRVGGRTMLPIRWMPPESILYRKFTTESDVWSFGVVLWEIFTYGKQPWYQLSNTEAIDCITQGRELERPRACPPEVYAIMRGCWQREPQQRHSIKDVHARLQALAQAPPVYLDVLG
The assay is described as follows: TrkA Kinase Binding Assay (LanthaScreen Eu). As to conditions: averaged IC50; TR-FRET binding, 60 min, 22° C.; read-out: TrkA Enzyme IC50. How it is done:
TrkA binding activity was determined in a TrkA LanthaScreen™ Eu Kinase Binding Assay. 5 nM His-tagged recombinant human TrkA (6HIS tagged cytoplasmic domain from Invitrogen, Catalog No. PV3144) was incubated with 4 nM Alexa-Fluor® Tracer 236 (Invitrogen Cat. No. PV5592), 2 nM biotinylated anti-His (Invitrogen Cat. No. PV6090), and 2 nM europium-labeled Streptavidin (Invitrogen Cat. No. PV5899), in buffer (25 mM MOPS, pH 7.5, 5 mM MgCl2, 0.005% Triton X-100). Three fold serial dilutions of compounds of the invention in DMSO were added to a final percentage of 2% DMSO. After 60-minute incubation at 22° C., the reaction was measured using the EnVision mutlimode plate reader (PerkinElmer) via TR-FRET dual wavelength detection at […]. The percent of control was calculated using a ratiometric emission factor. The IC50 values were determined by fitting a four parameter model to the percent of control data.
Table A provides averaged IC50 values for compounds of the invention when tested in the assay of Example A, where A represents an averaged IC50 value <100 nM; B represents an averaged IC50 value from 100 to 1,000 nM; and C represents an average 1050 value above 1000 nM.
For orientation: TR-FRET usually uses a lanthanide donor and a delayed reading to cut background.
With `COCc1ccc(OCC2CC2)c(CNC(=O)Nc2c(C)c(-c3cnn(C)c3)nn2-c2ccccc2)c1` [Example 14, 1-(2-(cyclopropylmethoxy)-5-(methoxymethyl)benzyl)-3-(1′,4-dimethyl-1-phenyl-1H,1′H-[3,4′-bipyrazol]-5-yl)urea], the IC50 is under 100 nM. Consider `CCOc1ccc(C2CC2)c(CNC(=O)Nc2c(C)c(-c3cnn(C)c3)nn2-c2ccccc2)c1` [Example 15, 1-(2-cyclopropyl-5-ethoxybenzyl)-3-(1′,4-dimethyl-1-phenyl-1H,1′H-[3,4′-bipyrazol]-5-yl)urea], for which the IC50 was under 100 nM. The figure for `COC(C)c1ccc(C2CCC2)c(CNC(=O)Nc2c(C)c(-c3cnc(C)nc3)nn2-c2ccccc2)c1` (centres unmarked) [Example 16, 1-(2-cyclobutyl-5-(1-methoxyethyl)benzyl)-3-(4-methyl-3-(2-methylpyrimidin-5-yl)-1-phenyl-1H-pyrazol-5-yl)urea] is 100 to 1000 nM; for `CCOc1ccc(COC)cc1CNC(=O)Nc1c(C)c(-c2cnn(C)c2)nn1-c1ccccc1` [Example 17, 1-(1′,4-dimethyl-1-phenyl-1H,1′H-[3,4′-bipyrazol]-5-yl)-3-(2-ethoxy-5-(methoxymethyl)benzyl)urea] it is under 100 nM. Next, `COCc1ccc(OC2CCC2)c(CNC(=O)Nc2c(C)c(-c3cnn(C)c3)nn2-c2ccccc2)c1` [Example 18, 1-(2-cyclobutoxy-5-(methoxymethyl)benzyl)-3-(1′,4-dimethyl-1-phenyl-1H,1′H-[3,4′-bipyrazol]-5-yl)urea]: 100 to 1000 nM; `COCc1ccc(OC2CCC2)c(CNC(=O)Nc2c(C)c(-c3ccc(C)nc3)nn2-c2ccccc2)c1` [Example 19, 1-(2-cyclobutoxy-5-(methoxymethyl)benzyl)-3-(4-methyl-3-(6-methylpyridin-3-yl)-1-phenyl-1H-pyrazol-5-yl)urea]: under 100 nM; `COCc1ccc(OC(F)F)c(CNC(=O)Nc2c(C)c(-c3cnn(C)c3)nn2-c2ccccc2)c1` [Example 20, 1-(2-(difluoromethoxy)-5-(methoxymethyl)benzyl)-3-(1′,4-dimethyl-1-phenyl-1H,1′H-[3,4′-bipyrazol]-5-yl)urea]: under 100 nM. The figure for `COCc1ccc(OC(F)F)c(CNC(=O)Nc2c(C)c(-c3ccc(C)nc3)nn2-c2ccccc2)c1` [Example 21, 1-(2-(difluoromethoxy)-5-(methoxymethyl)benzyl)-3-(4-methyl-3-(6-methylpyridin-3-yl)-1-phenyl-1H-pyrazol-5-yl)urea] is under 100 nM; for `COCc1ccc(OC(F)(F)F)c(CNC(=O)Nc2c(C)c(-c3cnn(C)c3)nn2-c2ccccc2)c1` [Example 22, 1-(1′,4-dimethyl-1-phenyl-1H,1′H-[3,4′-bipyrazol]-5-yl)-3-(5-(methoxymethyl)-2-(trifluoromethoxy)benzyl)urea] it is 100 to 1000 nM. Regarding `COCc1ccc(OC(F)(F)F)c(CNC(=O)Nc2c(C)c(-c3ccc(C)nc3)nn2-c2ccccc2)c1` [Example 23, 1-(5-(methoxymethyl)-2-(trifluoromethoxy)benzyl)-3-(4-methyl-3-(6-methylpyridin-3-yl)-1-phenyl-1H-pyrazol-5-yl)urea], the IC50 is under 100 nM. The figure for `COCc1ccc(C2(OC)CCC2)c(CNC(=O)Nc2c(C)c(-c3ccc(C)nc3)nn2-c2ccccc2)c1` [Example 24, 1-(2-(1-methoxycyclobutyl)-5-(methoxymethyl)benzyl)-3-(4-methyl-3-(6-methylpyridin-3-yl)-1-phenyl-1H-pyrazol-5-yl)urea] is 100 to 1000 nM. With `COCc1ccc(C2CC2(F)F)c(CNC(=O)Nc2c(C)c(-c3cnn(C)c3)nn2-c2ccccc2)c1` (centres unmarked) [Example 25, 1-(2-(2,2-difluorocyclopropyl)-5-(methoxymethyl)benzyl)-3-(1′,4-dimethyl-1-phenyl-1H,1′H-[3,4′-bipyrazol]-5-yl)urea 2,2,2-trifluoroacetate], the IC50 is under 100 nM. Next, `COCc1cccc(C(NC(=O)Nc2c(C)c(-c3ccc(=O)n(C)c3)nn2-c2ccccc2)C2CC2)c1` (centres unmarked) [Example 26, 1-(cyclopropyl(3-(methoxymethyl)phenyl)methyl)-3-(4-methyl-3-(1-methyl-6-oxo-1,6-dihydropyridin-3-yl)-1-phenyl-1H-pyrazol-5-yl)urea]: 100 to 1000 nM; `COCc1cccc(C(NC(=O)Nc2c(C)c(-c3ccn(C)c(=O)c3)nn2-c2ccccc2)C2CC2)c1` (centres unmarked) [Example 27, 1-(cyclopropyl(3-(methoxymethyl)phenyl)methyl)-3-(4-methyl-3-(1-methyl-2-oxo-1,2-dihydropyridin-4-yl)-1-phenyl-1H-pyrazol-5-yl)urea]: 100 to 1000 nM; `COCc1cccc(C(NC(=O)Nc2c(C)c(-c3cnn(C)c3)nn2-c2ccccc2)C2CC2)c1` (centres unmarked) [Example 28, 1-(cyclopropyl(3-(methoxymethyl)phenyl)methyl)-3-(1′,4-dimethyl-1-phenyl-1H,1′H-[3,4′-bipyrazol]-5-yl)urea]: 100 to 1000 nM. `COCc1cccc(C(C)NC(=O)Nc2c(C)c(-c3cnn(C)c3)nn2-c2ccccc2)c1` (centres unmarked) [Example 29, 1-(1′,4-dimethyl-1-phenyl-1H,1′H-[3,4′-bipyrazol]-5-yl)-3-(1-(3-(methoxymethyl)phenyl)ethyl)urea 2,2,2-trifluoroacetate]: the IC50 fell in the range of 100 to 1000 nM. Next, `COCc1ccc(C2CC2)c(C(C)NC(=O)Nc2c(C)c(-c3cnn(C)c3)nn2-c2ccccc2)c1` (centres unmarked) [Example 30, 1-(1-(2-cyclopropyl-5-(methoxymethyl)phenyl)ethyl)-3-(1′,4-dimethyl-1-phenyl-1H,1′H-[3,4′-bipyrazol]-5-yl)urea]: 100 to 1000 nM; `COCc1ccc(C2(F)COC2)c(CNC(=O)Nc2c(C)c(-c3cnn(C)c3)nn2-c2ccccc2)c1` [Example 31, 1-(1′,4-dimethyl-1-phenyl-1H,1′H-[3,4′-bipyrazol]-5-yl)-3-(2-(3-fluorooxetan-3-yl)-5-(methoxymethyl)benzyl)urea]: under 100 nM. The figure for `COCc1ccc(C2(F)COC2)c(CNC(=O)Nc2c(C)c(-c3ccc(C)nc3)nn2-c2ccccc2)c1` [Example 32, 1-(2-(3-fluorooxetan-3-yl)-5-(methoxymethyl)benzyl)-3-(4-methyl-3-(6-methylpyridin-3-yl)-1-phenyl-1H-pyrazol-5-yl)urea] is 100 to 1000 nM; for `COCc1ccc(C(C)C)c(CNC(=O)Nc2c(C)c(-c3cnn(C)c3)nn2-c2ccccc2)c1` [Example 34, 1-(1′,4-dimethyl-1-phenyl-1H,1′H-[3,4′-bipyrazol]-5-yl)-3-(2-isopropyl-5-(methoxymethyl)benzyl)urea] it is under 100 nM. Next, `COCc1ccc(C(C)(C)C)c(CNC(=O)Nc2c(C)c(-c3cnn(C)c3)nn2-c2ccccc2)c1` [Example 35, 1-(2-(tert-butyl)-5-(methoxymethyl)benzyl)-3-(1′,4-dimethyl-1-phenyl-1H,1′H-[3,4′-bipyrazol]-5-yl)urea]: under 100 nM; `COCc1cc(CNC(=O)Nc2c(C)c(-c3cnn(C)c3)nn2-c2ccccc2)c(C2CCC2)cn1` [Example 36, 1-((5-cyclobutyl-2-(methoxymethyl)pyridin-4-yl)methyl)-3-(1′,4-dimethyl-1-phenyl-1H,1′H-[3,4′-bipyrazol]-5-yl)urea]: under 100 nM.

On to `Cc1c(-c2cnn(C)c2)nn(-c2ccccc2)c1NC(=O)NCc1ccncc1C1CCC1` [Example 37, 1-((3-cyclobutylpyridin-4-yl)methyl)-3-(1′,4-dimethyl-1-phenyl-1H,1′H-[3,4′-bipyrazol]-5-yl)ureaea], for which the IC50 lay within 100 to 1000 nM. The figure for `COCc1ccc(C2CC(F)(F)C2)c(CNC(=O)Nc2c(C)c(-c3cnn(C)c3)nn2-c2ccccc2)c1` [Example 38, 1-(2-(3,3-difluorocyclobutyl)-5-(methoxymethyl)benzyl)-3-(1′,4-dimethyl-1-phenyl-1H,1′H-[3,4′-bipyrazol]-5-yl)urea] is under 100 nM; for `Cc1ccccc1CC(NC(=O)Nc1c2c(nn1-c1ccccc1)CCC2)c1ccccc1` (centres unmarked) [Example 39, 1-(2-phenyl-2,4,5,6-tetrahydrocyclopenta[c]pyrazol-3-yl)-3-(1-phenyl-2-o-tolylethyl)urea] it is 100 to 1000 nM; for `O=C(Nc1c2c(nn1-c1ccccc1)CCC2)NC(Cc1ccccc1)c1ccccc1` (centres unmarked) [Example 40, 1-(1,2-diphenylethyl)-3-(2-phenyl-2,4,5,6-tetrahydrocyclopenta[c]pyrazol-3-yl)urea] it is 100 to 1000 nM. Regarding `CC(Cc1ccccc1)(NC(=O)Nc1c2c(nn1-c1ccccc1)CCC2)c1ccccc1` (centres unmarked) [Example 41, 1-(1,2-diphenylpropan-2-yl)-3-(2-phenyl-2,4,5,6-tetrahydrocyclopenta[c]pyrazol-3-yl)urea], the IC50 lay in the range of 100 to 1000 nM. The figure for `O=C(Nc1c2c(nn1-c1ccccc1)CCC2)NC(Cc1ccccc1)Cc1ccccc1` [Example 42, 1-(1,3-diphenylpropan-2-yl)-3-(2-phenyl-2,4,5,6-tetrahydrocyclopenta[c]pyrazol-3-yl)urea] is under 100 nM; for `Cc1c(-c2cnn(C)c2)nn(-c2ccccc2)c1NC(=O)NCc1cccc2ccccc12` [Example 43, 1-(1′,4-dimethyl-1-phenyl-1H,1′H-3,4′-bipyrazol-5-yl)-3-(naphthalen-1-ylmethyl)urea] it is 100 to 1000 nM.

What is called IC50 is the concentration that gives 50% inhibition.
